Assay results reported in PMC4415586 (European journal of medicinal chemistry, 2014).
One block for each molecule: values may come before it.

Assays:
PARP-2 = PARP-2 (Homo sapiens, UniProt Q9UGN5); conditions: 20 nM, reference compound
PARP-14 = PARP-14 (Homo sapiens, UniProt Q460N5); assay: PARP-14 enzymatic assay; conditions: 100 μM
TNKS-1 = biological target: T1, TNKS-1 (Homo sapiens, UniProt O95271); assay: TNKS-1 autoribosylation assay; conditions: for inhibition at 1 µM: read-out: % of inhibition TNKS-1, 1 μM, duplicate; for % of inhibition TNKS-1: 1 μM, duplicate
T1 sequence (O95271 1-1327): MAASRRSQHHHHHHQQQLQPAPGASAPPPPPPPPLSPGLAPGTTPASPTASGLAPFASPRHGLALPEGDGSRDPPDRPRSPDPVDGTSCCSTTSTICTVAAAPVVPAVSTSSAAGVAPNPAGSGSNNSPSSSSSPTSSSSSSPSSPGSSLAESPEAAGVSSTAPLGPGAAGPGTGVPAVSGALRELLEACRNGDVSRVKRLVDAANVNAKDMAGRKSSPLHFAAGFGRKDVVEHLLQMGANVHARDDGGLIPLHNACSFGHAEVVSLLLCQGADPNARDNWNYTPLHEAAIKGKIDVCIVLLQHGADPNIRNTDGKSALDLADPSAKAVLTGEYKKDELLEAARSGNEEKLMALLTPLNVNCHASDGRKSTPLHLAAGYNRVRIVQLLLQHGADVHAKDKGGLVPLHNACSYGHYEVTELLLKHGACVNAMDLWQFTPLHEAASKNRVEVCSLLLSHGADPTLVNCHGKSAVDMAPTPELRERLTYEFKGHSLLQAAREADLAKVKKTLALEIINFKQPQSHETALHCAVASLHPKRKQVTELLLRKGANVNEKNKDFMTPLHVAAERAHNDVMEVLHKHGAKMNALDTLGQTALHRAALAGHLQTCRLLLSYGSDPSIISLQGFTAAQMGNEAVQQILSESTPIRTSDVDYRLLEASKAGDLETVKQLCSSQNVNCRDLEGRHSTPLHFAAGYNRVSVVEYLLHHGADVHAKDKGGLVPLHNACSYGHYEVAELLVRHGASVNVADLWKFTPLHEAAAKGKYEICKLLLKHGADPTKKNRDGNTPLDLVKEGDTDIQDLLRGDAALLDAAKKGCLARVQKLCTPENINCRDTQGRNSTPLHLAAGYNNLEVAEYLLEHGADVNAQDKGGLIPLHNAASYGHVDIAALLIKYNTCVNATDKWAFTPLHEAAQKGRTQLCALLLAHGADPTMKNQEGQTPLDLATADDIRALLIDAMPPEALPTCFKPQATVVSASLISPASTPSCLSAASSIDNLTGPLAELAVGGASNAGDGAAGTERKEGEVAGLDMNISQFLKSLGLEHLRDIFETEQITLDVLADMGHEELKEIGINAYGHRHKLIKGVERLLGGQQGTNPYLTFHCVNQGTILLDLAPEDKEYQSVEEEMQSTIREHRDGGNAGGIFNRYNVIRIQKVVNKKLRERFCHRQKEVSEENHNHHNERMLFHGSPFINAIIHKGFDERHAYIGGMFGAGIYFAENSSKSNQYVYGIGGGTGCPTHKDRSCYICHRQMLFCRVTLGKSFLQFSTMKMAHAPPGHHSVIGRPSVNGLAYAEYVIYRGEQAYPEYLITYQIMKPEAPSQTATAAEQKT

[1] = test system: RKO colorectal cancer cell line; assay: Cell growth inhibition, Wnt-negative RKO; format: cell-based; conditions: negative control cell line
[2] = test system: PARP enzymes (1–3, 6–8, 10–12, 14); assay: PARP selectivity panel; conditions: 10 μM, duplicate
DLD-1 cancer cells = assay: Colony growth assay, DLD-1; format: cell-based; conditions: 1, 5 and 10 μM, treated daily, 10 days
TNKS-2 = biological target: T2, TNKS-2 (Homo sapiens, UniProt Q9H2K2); assay: TNKS-2 autoribosylation assay; conditions: for inhibition at 1 µM: read-out: % of inhibition TNKS-2, 1 μM, duplicate
T2 sequence (Q9H2K2 1-1166): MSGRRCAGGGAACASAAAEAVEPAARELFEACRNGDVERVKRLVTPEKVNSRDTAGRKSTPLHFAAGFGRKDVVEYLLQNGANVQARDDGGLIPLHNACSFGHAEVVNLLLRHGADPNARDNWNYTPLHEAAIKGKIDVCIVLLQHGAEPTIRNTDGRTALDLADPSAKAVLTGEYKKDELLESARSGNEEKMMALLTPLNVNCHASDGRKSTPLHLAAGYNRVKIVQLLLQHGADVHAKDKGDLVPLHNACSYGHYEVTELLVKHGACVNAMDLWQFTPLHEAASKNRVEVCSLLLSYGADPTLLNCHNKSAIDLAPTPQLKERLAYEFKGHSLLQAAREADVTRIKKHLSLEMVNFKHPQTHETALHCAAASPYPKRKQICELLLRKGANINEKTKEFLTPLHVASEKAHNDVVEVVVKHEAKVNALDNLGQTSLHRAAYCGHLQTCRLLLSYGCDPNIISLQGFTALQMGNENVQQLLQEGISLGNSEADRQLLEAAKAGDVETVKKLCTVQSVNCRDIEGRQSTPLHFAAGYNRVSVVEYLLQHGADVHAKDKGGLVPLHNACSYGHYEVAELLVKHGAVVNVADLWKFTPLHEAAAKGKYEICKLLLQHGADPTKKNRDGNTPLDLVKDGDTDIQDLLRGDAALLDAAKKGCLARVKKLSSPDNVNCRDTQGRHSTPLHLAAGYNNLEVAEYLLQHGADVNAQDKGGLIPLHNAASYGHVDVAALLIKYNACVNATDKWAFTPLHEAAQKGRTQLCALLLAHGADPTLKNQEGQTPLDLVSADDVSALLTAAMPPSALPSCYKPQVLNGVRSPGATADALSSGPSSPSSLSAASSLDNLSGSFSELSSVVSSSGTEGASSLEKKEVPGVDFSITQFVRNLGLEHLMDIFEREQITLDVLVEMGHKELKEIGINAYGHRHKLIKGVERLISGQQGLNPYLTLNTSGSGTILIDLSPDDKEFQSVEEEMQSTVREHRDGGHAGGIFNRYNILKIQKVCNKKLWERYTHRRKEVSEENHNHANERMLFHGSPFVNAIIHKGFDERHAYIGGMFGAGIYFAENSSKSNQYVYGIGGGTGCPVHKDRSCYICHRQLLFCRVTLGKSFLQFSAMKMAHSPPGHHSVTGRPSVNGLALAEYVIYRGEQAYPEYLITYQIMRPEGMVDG

[3] = test system: TCF transcriptional activity (Wnt) in DLD-1 colorectal cancer cells; assay: TCF-luciferase reporter; format: cell-based; conditions: DLD-1 cells, 1 μM, 24 h

Chain of PARP-2 (Q9UGN5 whole entry): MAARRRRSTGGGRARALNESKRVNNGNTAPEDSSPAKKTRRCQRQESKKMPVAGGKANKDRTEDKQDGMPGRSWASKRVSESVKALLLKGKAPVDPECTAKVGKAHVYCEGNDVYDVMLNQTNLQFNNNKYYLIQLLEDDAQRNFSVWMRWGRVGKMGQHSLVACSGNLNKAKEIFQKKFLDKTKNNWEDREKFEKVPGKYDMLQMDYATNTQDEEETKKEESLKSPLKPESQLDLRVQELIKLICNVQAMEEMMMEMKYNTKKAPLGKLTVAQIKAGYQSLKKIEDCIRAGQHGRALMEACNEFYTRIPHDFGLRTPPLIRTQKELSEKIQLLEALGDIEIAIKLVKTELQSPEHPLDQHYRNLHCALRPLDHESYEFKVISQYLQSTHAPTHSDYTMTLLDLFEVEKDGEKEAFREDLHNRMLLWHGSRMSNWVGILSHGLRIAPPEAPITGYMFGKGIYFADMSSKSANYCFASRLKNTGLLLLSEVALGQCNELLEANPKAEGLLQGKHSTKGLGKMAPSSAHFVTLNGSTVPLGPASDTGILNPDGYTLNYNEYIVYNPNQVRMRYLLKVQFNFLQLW
Chain of PARP-14 (Q460N5 whole entry): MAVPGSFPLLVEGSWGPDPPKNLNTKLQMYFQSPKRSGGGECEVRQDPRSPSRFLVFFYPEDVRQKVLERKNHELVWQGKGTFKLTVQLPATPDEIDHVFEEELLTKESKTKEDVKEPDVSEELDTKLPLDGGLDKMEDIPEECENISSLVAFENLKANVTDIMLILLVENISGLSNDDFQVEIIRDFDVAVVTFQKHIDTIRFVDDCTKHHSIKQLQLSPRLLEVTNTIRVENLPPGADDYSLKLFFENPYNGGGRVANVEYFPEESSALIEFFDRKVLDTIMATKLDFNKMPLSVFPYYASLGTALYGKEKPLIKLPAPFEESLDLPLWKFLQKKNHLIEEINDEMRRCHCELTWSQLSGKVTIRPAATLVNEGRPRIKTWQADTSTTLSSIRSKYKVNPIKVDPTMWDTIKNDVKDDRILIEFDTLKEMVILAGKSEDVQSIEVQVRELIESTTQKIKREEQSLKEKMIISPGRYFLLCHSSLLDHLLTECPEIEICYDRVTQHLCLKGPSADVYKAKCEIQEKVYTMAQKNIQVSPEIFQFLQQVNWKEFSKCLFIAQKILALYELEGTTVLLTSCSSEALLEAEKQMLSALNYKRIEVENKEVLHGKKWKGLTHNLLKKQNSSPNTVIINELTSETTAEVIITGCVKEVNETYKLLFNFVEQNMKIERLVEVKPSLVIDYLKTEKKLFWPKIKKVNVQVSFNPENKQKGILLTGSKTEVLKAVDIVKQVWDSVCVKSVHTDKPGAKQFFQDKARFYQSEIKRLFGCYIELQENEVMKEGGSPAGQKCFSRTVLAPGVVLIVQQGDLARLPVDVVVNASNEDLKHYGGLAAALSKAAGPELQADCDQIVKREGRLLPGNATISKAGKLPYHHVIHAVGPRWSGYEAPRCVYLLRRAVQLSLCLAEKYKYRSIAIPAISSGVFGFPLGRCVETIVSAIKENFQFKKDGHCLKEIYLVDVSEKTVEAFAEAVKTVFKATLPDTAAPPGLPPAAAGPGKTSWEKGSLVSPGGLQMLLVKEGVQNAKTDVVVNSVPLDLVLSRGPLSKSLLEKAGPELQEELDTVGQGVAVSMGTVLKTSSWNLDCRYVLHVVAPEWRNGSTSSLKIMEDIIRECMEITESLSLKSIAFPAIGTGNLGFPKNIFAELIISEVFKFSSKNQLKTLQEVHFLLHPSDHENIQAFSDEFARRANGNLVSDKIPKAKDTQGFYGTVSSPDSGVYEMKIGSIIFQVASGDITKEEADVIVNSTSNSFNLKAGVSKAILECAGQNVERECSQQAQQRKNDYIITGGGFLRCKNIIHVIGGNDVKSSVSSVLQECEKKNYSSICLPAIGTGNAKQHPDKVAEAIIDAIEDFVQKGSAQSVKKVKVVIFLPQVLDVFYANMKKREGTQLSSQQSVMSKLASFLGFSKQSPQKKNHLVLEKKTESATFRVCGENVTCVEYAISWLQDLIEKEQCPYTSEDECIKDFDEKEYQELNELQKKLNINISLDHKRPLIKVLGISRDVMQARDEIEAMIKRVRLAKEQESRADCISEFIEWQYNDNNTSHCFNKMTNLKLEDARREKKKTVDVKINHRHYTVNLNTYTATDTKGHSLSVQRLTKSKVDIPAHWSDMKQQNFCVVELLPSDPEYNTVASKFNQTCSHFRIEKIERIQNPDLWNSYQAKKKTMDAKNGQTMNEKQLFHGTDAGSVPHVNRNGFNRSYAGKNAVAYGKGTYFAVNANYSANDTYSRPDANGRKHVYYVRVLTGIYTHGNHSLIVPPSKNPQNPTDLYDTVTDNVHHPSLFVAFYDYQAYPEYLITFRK

Molecule: Olaparib [AZD 2281]
% of inhibition PARP-2 (PARP-2): 100%
% inhibition PARP-14 (PARP-14): less than 20%

Molecule: CC(C)(C)c1ccc(-c2nc3c(sc4ccccc43)c(=O)[nH]2)cc1 [compound 23, 2-(4-tert-Butyl-phenyl)-3H-benzo[4,5]thieno[3,2-d] pyrimidin-4-one]
TNKS-1 inhibition (TNKS-1; 10 μM): fully inhibited
growth inhibition of Wnt-negative RKO cells [1]: marginal non-specific effects were only detected at concentrations higher than 10 μM
inhibition of the other PARPs tested [2]: below 20%
long-term growth inhibition of DLD-1 cells (DLD-1 cancer cells): marked efficacy
TNKS-2 inhibition (TNKS-2; 10 μM): fully inhibited
TCF reporter activity inhibition [3]: comparable fashion to the reference compounds 1 and IWR-1

Molecule: COc1ccc2c(c1)nc(O)c1sc3ccccc3c12 [compound 7, 3-Methoxy[l]benzothieno[2,3-c]quinolin-6(5H)-one]
% of inhibition TNKS-1 (TNKS-1): > 70%
inhibition at 1 µM (TNKS-2): > 70%

Molecule: O=c1[nH]c2cc(O)ccc2c2c1sc1ccccc12 [compound 9, 3-Hydroxy[l]benzothieno[2,3-c]quinolin-6(5H)-one]
inhibition at 1 µM (TNKS-1): ≤ 100%

Continued, values first:

inhibition at 1 µM (TNKS-1): ≤ 90%
Molecule: O=c1[nH]c2ccccc2c2c1sc1ccc(O)cc12 [compound 8, 10-Hydroxy[l]benzothieno[2,3-c]quinolin-6(5H)-one]

inhibition at 1 µM (TNKS-1): 84%
Molecule: O=c1[nH]c(-c2ccccc2)cc2c1sc1ccccc12 [compound 16, 3-Phenyl[1]benzothieno[2,3-c]pyridin-1(2H)-one]

inhibition at 1 µM (TNKS-1): > 70%
inhibition at 1 µM (TNKS-2): > 70%
Molecule: COc1ccc2sc3c(O)nc4ccccc4c3c2c1 [compound 6, 10-Methoxy[l]benzothieno[2,3-c]quinolin-6(5H)-one]

inhibition at 1 µM (TNKS-1): 98%
Molecule: Cc1ccc(-c2nc3c(sc4ccccc43)c(=O)[nH]2)cc1 [compound 22, 2-p-Tolyl-3H-benzo[4,5]thieno[3,2-d]pyrimidin-4-one]

% of inhibition TNKS-1 (TNKS-1): nearly inactive
Molecule: O=c1[nH]c(-c2ccccc2)nc2c3c(sc12)CCCC3 [compound 19, 2-Phenyl-6,7,8,9-tetrahydro-3H-benzo[4,5]thieno[3,2-d] pyrimidin-4-one]
